# Measurements: US11684621B2, “Combination containing sGC stimulators and mineralocorticoid receptor antagonists” (Bayer Pharma Aktiengesellschaft, priority 2016, dated 2023)
# Tested on: L-NAME-treated renin transgenic rats (TGR(mRen2)27)
# Assay: L-NAME-treated transgenic renin rat (TGR(mRen2)27): mortality and proteinuria
# Type: in vivo
# Settings: finerenone 10 mg/kg od, compound of the formula (X) 0.3 mg/kg od, alone or combined; for All-cause mortality during the study period / Survival rate over the study period: L-NAME-treated TGR(mRen2)27 renin rats, daily gavage; for All-cause mortality during the study period: 15 animals per group, placebo mortality 40%; for Survival rate over the study period: study terminated after 40% of placebo animals had died; for Reduction of proteinuria, measured as protein/creatinine quotient in urine / Protein/creatine quotient - % of group A (proteinuria in % reduction from placebo): L-NAME-treated renin transgenic rats; for Reduction of proteinuria, measured as protein/creatinine quotient in urine: versus placebo; for Protein/creatine quotient - % of group A (proteinuria in % reduction from placebo): urine, end of the study, mean ± SEM, relative to placebo group A
# Excerpt: 3.) L-NAME-treated transgenic renin rat (TGR(mRen2)27)
# The transgenic renin rat ‘TGR(mRen2)27’ is a hypertensive rat line developed by Mullins and Ganten which overexpresses the Ren-2 gene of the mouse. Additional administration of the nitrogen monoxide synthase inhibitor L-NAME induces endothelial dysfunction which increases morbidity and mortality in this model. Unless subjected to life-long antihypertensive therapy, homozygous animals die of secondary complications such as heart and kidney failure or stroke.
# Male TGR(mRen2)27 renin rats aged 10 to 20 weeks are randomized to different pharmacological treatment groups and a placebo group. In addition, the nitrogen monoxide synthase inhibitor L-NAME is administered via the drinking water in a concentration of 30 to 100 mg/l. During the entire experiment, drinking water and feed are available ad libitum to the animals. The substances are administered via the feed or daily by gavage for 4-10 weeks. Animals treated in the same way but receiving either only the solvent or the feed without test substance serve as placebo group. During the experiment, the systolic blood pressure is determined at regular intervals using a tail cuff, and proteinuria and urine electrolyte composition are determined by collecting the urine in metabolic cages. At the end of the experiment, haemodynamic parameters (blood pressure, heart rate, inotropism [dp/dt], relaxation time [tau], maximum left ventricular pressure, left ventricular end-diastolic pressure [LVEDP]) are measured, and the weights of heart, kidney and lung are determined, protein elimination and biomarkers (e.g. ANP, RIA Kit RK 005-24, Phoenix Pharmaceuticals, Inc., USA, cGMP, RIA Kit RE29075, IBL International GmbH, Hamburg, Germany, renin, angiotensin I, RIA Kit CA-1533, DiaSorin S.p.A., Italy, and aldosterone, P2714, DiaSorin S.p.A., Italy) and gene expression of biomarkers by RT/TaqMan PCR following RNA isolation from cardiac and renal tissue are determined.
# Cardiac and cardiovascular disorders as well as renal and cardiorenal disorders are characterized by high patient morbidity and also high mortality. This morbidity and mortality, together with various risk factors such as hypertension, can be reproduced very accurately in the above-described animal model of the L-NAME-treated renin transgenic rat. Therefore, this animal model, for example, was used to investigate MR antagonists such as, for example, finerenone according to the compound of the formula (IV) and sGC stimulators such as, for example, the compound of the formula (X), and combinations of both: […]
# For example, the MR antagonist finerenone, corresponding to the compound of the formula (IV), and the sGC stimulator, corresponding to the compound of the formula (X), were tested on their own and in combinations in TGR(mRen2)27 renin rats aged 10 to 20 weeks. In addition, the nitrogen monoxide synthase inhibitor L-NAME was administered via the drinking water in a concentration of 30 to 100 mg/l. During the entire experiment, drinking water and feed were available ad libitum to the animals. The substances were administered daily by gavage for 4-10 weeks. Animals treated in the same way but receiving only the solvent for the test substance served as placebo group. In the test series, in addition to placebo (group A), the MR antagonist finerenone corresponding to the compound of the formula (IV) (10 mg/kg od) (group B) and the sGC stimulator corresponding to the compound of the formula (X) (0.3 mg/kg od) (group C) on their own and a combination of finerenone corresponding to the compound of the formula (IV) (10 mg/kg od)+compound of the formula (X) (0.3 mg/kg od) (group D) were administered. In this study, 15 animals were used per group (A, B, C, D) (Table 1): […]
compound,measurement,value
"COC(=O)Nc1c(N)nc(-c2nn(Cc3ccccc3F)c3ncc(F)cc23)nc1N [compound of the formula (X), methyl {4,6-diamino-2-[5-fluoro-1-(2-fluorobenzyl)-1H-pyrazolo[3,4-b]pyridin-3-yl]pyrimidin-5-yl}carbamate]",All-cause mortality during the study period,13%
same,Survival rate over the study period,87%
same,"Reduction of proteinuria, measured as protein/creatinine quotient in urine",51%
same,Protein/creatine quotient - % of group A (proteinuria in % reduction from placebo),−51 + 20%
"CCOc1ncc(C)c2c1[C@H](c1ccc(C#N)cc1OC)C(C(N)=O)=C(C)N2 [finerenone, (S)-4-(4-cyano-2-methoxyphenyl)-5-ethoxy-2,8-dimethyl-1,4-dihydro-1,6-naphthyridine-3-carboxamide]",All-cause mortality during the study period,20%
same,Survival rate over the study period,80%
same,"Reduction of proteinuria, measured as protein/creatinine quotient in urine",58%
same,Protein/creatine quotient - % of group A (proteinuria in % reduction from placebo),−58 + 16%
